Test results reported in ChEMBL document CHEMBL3885881, “DrugMatrix”.

Organism: Rattus norvegicus
Test: DrugMatrix - Regimen: Daily Repeat
Format: toxicity, organism-based, Sprague-Dawley
Parameters: regimen Daily Repeat, gender Male, age 6-8 weeks
Conditions: in vivo, po, route oral GAVAGE, […]; for ABSOLUTE BASOPHIL / ABSOLUTE EOSINOPHIL / ABSOLUTE LYMPHOCYTE / ABSOLUTE MONOCYTE / ABSOLUTE SEGMENTED NEUTROPHIL / BASOPHIL / EOSINOPHIL / ERYTHROCYTE COUNT / HEMATOCRIT / HEMOGLOBIN / LEUKOCYTE COUNT / LYMPHOCYTE / MEAN CORPUSCULAR HEMOGLOBIN / MEAN CORPUSCULAR HEMOGLOBIN CONCENTRATION / MEAN CORPUSCULAR VOLUME / MONOCYTE / NEUTROPHIL / NUCLEATED RED BLOOD CELLS / PLATELET COUNT: tissue Blood; for ALANINE AMINOTRANSFERASE / ALBUMIN / ALKALINE PHOSPHATASE / ASPARTATE AMINOTRANSFERASE / BLOOD UREA NITROGEN / CARBON DIOXIDE / CHLORIDE / CHOLESTEROL / CREATINE PHOSPHOKINASE / CREATININE / GLUCOSE / LACTATE DEHYDROGENASE / LIPASE / PHOSPHORUS / POTASSIUM / SODIUM / TOTAL BILIRUBIN / TOTAL PROTEIN / URIC ACID: tissue Plasma
[1] = 100 mg/kg, 120 h, dose level Low, time 5 day
[2] = 700 mg/kg, 72 h, dose level High, time 3 day
[3] = 700 mg/kg, 120 h, dose level High, time 5 day

SMILES: CC(=O)Nc1cccc(O)c1 [METACETAMOL]
- ABSOLUTE BASOPHIL [1]: 0 CELLS/uL
- ABSOLUTE EOSINOPHIL [1]: 0 CELLS/uL
- ABSOLUTE LYMPHOCYTE [1]: 14298.33 CELLS/uL
- ABSOLUTE MONOCYTE [1]: 106.33 CELLS/uL
- ABSOLUTE SEGMENTED NEUTROPHIL [1]: 1828.67 CELLS/uL
- BASOPHIL [1]: 0%
- EOSINOPHIL [1]: 0%
- ERYTHROCYTE COUNT [1]: 5.63 x10E6/uL
- HEMATOCRIT [1]: 35%
- HEMOGLOBIN [1]: 13.73 G/DL
- LEUKOCYTE COUNT [1]: 16.23 x10E3/uL
- LYMPHOCYTE [1]: 88%
- MEAN CORPUSCULAR HEMOGLOBIN [1]: 24.43 pg
- MEAN CORPUSCULAR HEMOGLOBIN CONCENTRATION [1]: 39.23 G/DL
- MEAN CORPUSCULAR VOLUME [1]: 62.23 fL
- MONOCYTE [1]: 0.67%
- NEUTROPHIL [1]: 11.33%
- NUCLEATED RED BLOOD CELLS [1]: 0.33 /100WBC
- PLATELET COUNT [1]: 1235.67 x10E3/uL
- ALANINE AMINOTRANSFERASE [1]: 58.33 u/L
- ALBUMIN [1]: 4.03 G/DL
- ALKALINE PHOSPHATASE [1]: 434.67 u/L
- ASPARTATE AMINOTRANSFERASE [1]: 95 u/L
- BLOOD UREA NITROGEN [1]: 14.67 mg/dL
- CARBON DIOXIDE [1]: 26.67 mmol/L
- CHLORIDE [1]: 101 MEQ/L
- CHOLESTEROL [1]: 68.33 mg/dL
- CREATINE PHOSPHOKINASE [1]: 455.33 u/L
- CREATININE [1]: 0.2 mg/dL
- GLUCOSE [1]: 151 mg/dL
- LACTATE DEHYDROGENASE [1]: 549 u/L
- LIPASE [1]: 10.33 u/L
- PHOSPHORUS [1]: 11.03 mg/dL
- POTASSIUM [1]: 6.46 MEQ/L
- SODIUM [1]: 140.67 MEQ/L
- TOTAL BILIRUBIN [1]: 0.17 mg/dL
- TOTAL PROTEIN [1]: 5.73 G/DL
- URIC ACID [1]: 1.6 mg/dL
- ABSOLUTE BASOPHIL [2]: 0 CELLS/uL
- ABSOLUTE EOSINOPHIL [2]: 0 CELLS/uL
- ABSOLUTE LYMPHOCYTE [2]: 14734.67 CELLS/uL
- ABSOLUTE MONOCYTE [2]: 227.67 CELLS/uL
- ABSOLUTE SEGMENTED NEUTROPHIL [2]: 1637.67 CELLS/uL
- BASOPHIL [2]: 0%
- EOSINOPHIL [2]: 0%
- ERYTHROCYTE COUNT [2]: 5.31 x10E6/uL
- HEMATOCRIT [2]: 34.37%
- HEMOGLOBIN [2]: 13.6 G/DL
- LEUKOCYTE COUNT [2]: 16.6 x10E3/uL
- LYMPHOCYTE [2]: 89%
- MEAN CORPUSCULAR HEMOGLOBIN [2]: 25.6 pg
- MEAN CORPUSCULAR HEMOGLOBIN CONCENTRATION [2]: 39.6 G/DL
- MEAN CORPUSCULAR VOLUME [2]: 64.7 fL
- MONOCYTE [2]: 1.33%
- NEUTROPHIL [2]: 9.67%
- NUCLEATED RED BLOOD CELLS [2]: 0 /100WBC
- PLATELET COUNT [2]: 1189.67 x10E3/uL
- ALANINE AMINOTRANSFERASE [2]: 61.67 u/L
- ALBUMIN [2]: 4.37 G/DL
- ALKALINE PHOSPHATASE [2]: 420.33 u/L
- ASPARTATE AMINOTRANSFERASE [2]: 80.33 u/L
- BLOOD UREA NITROGEN [2]: 15.67 mg/dL
- CARBON DIOXIDE [2]: 32.33 mmol/L
- CHLORIDE [2]: 98.67 MEQ/L
- CHOLESTEROL [2]: 94 mg/dL
- CREATINE PHOSPHOKINASE [2]: 171 u/L
- CREATININE [2]: 0.17 mg/dL
- GLUCOSE [2]: 144 mg/dL
- LACTATE DEHYDROGENASE [2]: 137 u/L
- LIPASE [2]: 10 u/L
- PHOSPHORUS [2]: 10.6 mg/dL
- POTASSIUM [2]: 6.44 MEQ/L
- SODIUM [2]: 143.63 MEQ/L
- TOTAL BILIRUBIN [2]: 0.27 mg/dL
- TOTAL PROTEIN [2]: 6 G/DL
- URIC ACID [2]: 1.33 mg/dL
- ABSOLUTE BASOPHIL [3]: 0 CELLS/uL
- ABSOLUTE EOSINOPHIL [3]: 0 CELLS/uL
- ABSOLUTE LYMPHOCYTE [3]: 13480 CELLS/uL
- ABSOLUTE MONOCYTE [3]: 247.33 CELLS/uL
- ABSOLUTE SEGMENTED NEUTROPHIL [3]: 2206 CELLS/uL
- BASOPHIL [3]: 0%
- EOSINOPHIL [3]: 0%
- ERYTHROCYTE COUNT [3]: 5.72 x10E6/uL
- HEMATOCRIT [3]: 35.17%
- HEMOGLOBIN [3]: 13.93 G/DL
- LEUKOCYTE COUNT [3]: 15.93 x10E3/uL
- LYMPHOCYTE [3]: 84.67%
- MEAN CORPUSCULAR HEMOGLOBIN [3]: 24.37 pg
- MEAN CORPUSCULAR HEMOGLOBIN CONCENTRATION [3]: 39.6 G/DL
- MEAN CORPUSCULAR VOLUME [3]: 61.53 fL
- MONOCYTE [3]: 1.67%
- NEUTROPHIL [3]: 13.67%
- NUCLEATED RED BLOOD CELLS [3]: 0.67 /100WBC
- PLATELET COUNT [3]: 1165.67 x10E3/uL
- ALANINE AMINOTRANSFERASE [3]: 57 u/L
- ALBUMIN [3]: 4.27 G/DL
- ALKALINE PHOSPHATASE [3]: 454.33 u/L
- ASPARTATE AMINOTRANSFERASE [3]: 78.67 u/L
- BLOOD UREA NITROGEN [3]: 15.67 mg/dL
- CARBON DIOXIDE [3]: 27.33 mmol/L
- CHLORIDE [3]: 105 MEQ/L
- CHOLESTEROL [3]: 78.67 mg/dL
- CREATINE PHOSPHOKINASE [3]: 239.33 u/L
- CREATININE [3]: 0.25 mg/dL
- GLUCOSE [3]: 169.67 mg/dL
- LACTATE DEHYDROGENASE [3]: 132 u/L
- LIPASE [3]: 10.33 u/L
- PHOSPHORUS [3]: 10.87 mg/dL
- POTASSIUM [3]: 7.12 MEQ/L
- SODIUM [3]: 151.07 MEQ/L
- TOTAL BILIRUBIN [3]: 0.2 mg/dL
- TOTAL PROTEIN [3]: 5.97 G/DL
- URIC ACID [3]: 2 mg/dL
